# Values quoted from earlier work as cited in patent publication US20100151459A1, “MARKER FOR DETECTING THE PROPOSED EFFICACY OF TREATMENT” (priority 2007, published 2010).
# Tests used:
# [1] = system: acutely exacerbated schizophrenic inpatients; settings: 18 mg/day, 3-week treatment
# [2] = system: reserpinized (hypodopaminergic) rats
SMILES,"percentage improvement in other subgrouped symptoms (negative, anxiety-depression, excitement and cognitive symptoms) ([1]; between the two genotype groups)",percentage improvement in total BPRS and positive symptoms ([1]; one or two A1 alleles (n=14) vs no A1 allele (n=11)),locomotor activity [2]
CNc1cc(OC)c(C(=O)NC2CCN(Cc3ccccc3)C2C)cc1Cl (stereo not drawn) [nemonapride],similar,significantly higher percentage improvement,–
O=C1CCc2ccc(OCCCCN3CCN(c4cccc(Cl)c4Cl)CC3)cc2N1 [aripiprazole],–,–,does not increase locomotor activity
